Results from patent publication US11905249B2, “Covalent inhibitors of equine encephalitis virus” (priority 2021, dated 2024).
Read-outs that look alike come from different tables or passages of the source.

Experiments:
[1] = tested on: Neuro-2a cells
[2] = tested on: BE(2)-M17 cells
[3] = tested on: VEEV TC83; assay: microbe, parasite or virus in culture; type: cell-based, Venezuelan equine encephalitis virus
[4] = tested on: VEEV TC83; assay: microbe, parasite or virus in culture; type: cell-based, Venezuelan equine encephalitis virus; remark: listed apart in the source
[5] = tested on: VEEV (IC-SH3); assay: microbe, parasite or virus in culture; type: cell-based; settings: Venezuelan equine encephalitis virus, HeLa, read-out: EC50 (HeLa)
[6] = tested on: VEEV (IC-SH3); assay: microbe, parasite or virus in culture; type: cell-based; settings: Venezuelan equine encephalitis virus, Vero, read-out: EC50 (Vero)
[7] = target: VEEV nsP2 protease (Venezuelan equine encephalitis virus, UniProt P27282); assay: biochemical; settings: read-out: estimated percentage inhibition of VEEV nsP2
[8] = Venezuelan equine encephalitis virus, read-out: Human BE(2)-M17 (TC83) EC50 (μM)
[9] = Venezuelan equine encephalitis virus, N2a, in Mus musculus, read-out: Mouse Neuro-2a (TC83) EC50 (μM)

Chain of VEEV nsP2 protease (P27282 1003-1322 limits assumed): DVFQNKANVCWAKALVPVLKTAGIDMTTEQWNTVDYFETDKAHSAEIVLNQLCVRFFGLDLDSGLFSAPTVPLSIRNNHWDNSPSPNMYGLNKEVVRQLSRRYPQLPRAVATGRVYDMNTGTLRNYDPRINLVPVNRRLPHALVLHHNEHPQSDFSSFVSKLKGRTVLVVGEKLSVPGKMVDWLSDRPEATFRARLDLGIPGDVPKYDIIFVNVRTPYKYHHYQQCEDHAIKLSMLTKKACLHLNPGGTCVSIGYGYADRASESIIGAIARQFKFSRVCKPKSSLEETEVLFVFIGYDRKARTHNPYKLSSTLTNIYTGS

Compound | Mouse Neuro-2a (TC83) CC50 ([1]; mouse) | Human BE(2)-M17 (TC83) CC50 ([2]; human) | EC50 [3, 8] | EC50 [4, 9] | further results
COC(=O)/C=C/[C@H](C)NC(=O)c1cccc2c1NC(C)(C)C=C2C [Compound 24] | >25.00 µM | >25.00 µM | > 25 µM | > 25 µM | 
CN1CCN(C)C(=Nc2ccc([N+](=O)[O-])cc2C(=O)Nc2ccccc2)C1 [ML336, reference compound] |  |  |  |  | Mouse Neuro-2a (TC83) CC50 [1]: >2.5 µM; Human BE(2)-M17 (TC83) CC50 [2]: >2.50 µM; EC50 ([3]; read-out: Human BE(2)-M17 (TC83) EC50): 0.01 µM; EC50 ([4]; read-out: Mouse Neuro-2a (TC83) EC50): 0.02 ± 0.01 µM
COC(=O)/C=C/CNC(=O)c1cccc2cccnc12 [Compound 17] | >25.00 µM | >25.00 µM | > 25 µM | > 25 µM | 
CS(=O)(=O)/C=C/[C@H](Cc1ccccc1)NC(=O)c1cccc2cccnc12 [Compound 36] | >25.00 µM | >25.00 µM | > 25 µM | > 25 µM | 
COC(=O)/C=C/CNC(=O)c1cccc2c1NC(C)(C)C=C2C [Compound 1] |  |  |  |  | EC50 [5]: 6.48 µM; EC50 [6]: 0.55 µM
COC(=O)/C=C/C(C)(C)NC(=O)c1cccc2c1NC(C)(C)C[C@H]2C [Compound 27] | >25.00 µM | >25.00 µM | > 25 µM | > 25 µM | 
C[C@@H]1CC(C)(C)Nc2c(C(=O)N[C@H](/C=C/S(=O)(=O)c3ccccc3)Cc3ccccc3)cccc21 [Compound 42] | >25.00 µM | >25.00 µM | > 25 µM | > 25 µM | 
O=C(N[C@H](/C=C/S(=O)(=O)c1ccccc1)Cc1ccccc1)c1cccc2c1NCCC2 [Compound 43] | >25.00 µM | >25.00 µM | > 25 µM | > 25 µM | 
COC(=O)/C=C/CNC(=O)c1c[nH]c2ccc(C)cc12 [Compound 21] | >25.00 µM | >25.00 µM | > 25 µM | > 25 µM | 
COc1ccc2[nH]cc(C(=O)N[C@H](/C=C/S(=O)(=O)c3ccccc3)Cc3ccccc3)c2c1 [Compound 40] | >25.00 µM | >25.00 µM | 23.9 ± 5.33 µM | > 25 µM | 
CC1=CC(C)(C)Nc2c(C(=O)N[C@H](/C=C/S(C)(=O)=O)Cc3ccccc3)cc(C)cc21 [Compound 37] | >50.00 µM | >50.00 µM | 31.7 ± 16.7 µM | > 50 µM | 
CC1=CC(C)(C)Nc2c(C(=O)N[C@@H](C)/C=C/S(C)(=O)=O)cccc21 [Compound 12] |  |  |  |  | inhibition at 0.9 µM [7]: ~59%
COC(=O)/C=C/CNC(=O)c1cccc2nccnc12 [Compound 22] | >25.00 µM | >25.00 µM | > 25 µM | > 25 µM | 
C[C@@H]1CC(C)(C)Nc2c(C(=O)N[C@@H](C)/C=C/S(C)(=O)=O)cccc21 [Compound 13] |  |  |  |  | inhibition at 0.9 µM [7]: ~71%
C[C@@H]1CC(C)(C)Nc2c(C(=O)NC(C)(C)/C=C/S(C)(=O)=O)cccc21 [Compound 39] | >25.00 µM | >25.00 µM | > 25 µM | > 25 µM | 
CC1=CC(C)(C)Nc2c(C(=O)NC(C)(C)/C=C/S(C)(=O)=O)cccc21 [Compound 38] | >25.00 µM | >25.00 µM | > 25 µM | > 25 µM | 

Compound | Mouse Neuro-2a (TC83) CC50 ([1]; mouse) | Human BE(2)-M17 (TC83) CC50 ([2]; human) | EC50 [3, 8] | EC50 [4, 9] | further results
COC(=O)/C=C/[C@H](Cc1ccccc1)NC(=O)c1c[nH]c2ccc(Cl)cc12 [Compound 28] | >50.00 µM | >50.00 µM | > 50 µM | > 50 µM | 
COC(=O)/C=C/[C@H](Cc1ccccc1)NC(=O)c1cc(C)cc2c1NC(C)(C)C=C2C [Compound 30] | >50.00 µM | >50.00 µM | > 50 µM | > 50 µM | 
COC(=O)/C=C/[C@H](Cc1ccccc1)NC(=O)c1cccc2c1NC(C)(C)C=C2C [Compound 29] | >50.00 µM | >50.00 µM | > 50 µM | > 50 µM | 
Cc1ccc(Cl)c(Nc2ccccc2C(=O)NC/C=C/S(C)(=O)=O)c1Cl [Compound 35] | >25.00 µM | 14.50 µM | 18.2 ± 0.93 µM | > 25 µM | 
CC1=CC(C)(C)Nc2c(C(=O)N[C@H](/C=C/S(=O)(=O)c3ccccc3)Cc3ccccc3)cccc21 [Compound 41] | >25.00 µM | >25.00 µM | > 25 µM | > 25 µM | 
CS(=O)(=O)/C=C/CNC(=O)c1cccc2nccnc12 [Compound 34] | >25.00 µM | >25.00 µM | > 25 µM | > 25 µM | 
COC(=O)/C=C/CNC(=O)c1ccccc1Nc1cccc(Cl)c1Cl [Compound 20] | 1.52 µM | >25.00 µM | > 25 µM | > 25 µM | 
COC(=O)/C=C/CNC(=O)c1cccc2ccc(C)nc12 [Compound 18] | >25.00 µM | >25.00 µM | > 25 µM | > 25 µM | 
CS(=O)(=O)/C=C/CNC(=O)c1ccccc1Nc1cccc(Cl)c1Cl [Compound 33] | 15.48 µM | 5.86 µM | > 25 µM | > 25 µM | 
COC(=O)/C=C/C(C)(C)NC(=O)c1cccc2c1NC(C)(C)C=C2C [Compound 26] | >25.00 µM | >25.00 µM | > 25 µM | > 25 µM | 
COC(=O)/C=C/[C@H](C)NC(=O)c1cccc2c1NC(C)(C)C[C@H]2C [Compound 25] | >25.00 µM | >25.00 µM | > 25 µM | > 25 µM | 
Cc1ccc2cccc(C(=O)NC/C=C/S(C)(=O)=O)c2n1 [Compound 31] | >25.00 µM | >25.00 µM | > 25 µM | > 25 µM | 
CS(=O)(=O)/C=C/CNC(=O)c1ccccc1Nc1ccccc1 [Compound 32] | >25.00 µM | 27.14 µM | > 25 µM | > 25 µM | 
COC(=O)/C=C/CNC(=O)c1ccccc1Nc1ccccc1 [Compound 19] | >25.00 µM | >25.00 µM | > 25 µM | > 25 µM | 
COC(=O)/C=C/CNC(=O)c1ccccc1Nc1c(Cl)ccc(C)c1Cl [Compound 23] | 23.53 µM | >25.00 µM | > 25 µM | > 25 µM | 
C[C@@H]1CC(C)(C)Nc2c(C(=O)NC/C=C/S(C)(=O)=O)cccc21 [Compound 11] |  |  |  |  | inhibition at 0.9 µM [7]: ~39%
